{"source": "patent US5140025A", "about": "“Thienotricylene for the treatment of bronchial diseases” (BYK Gulden Lomberg Chemische Fabrik GmbH, priority 1987, dated 1992)", "key": {"M2 receptor (cardiac)": {"target": "T1, M2 receptor (cardiac) (Rattus norvegicus, UniProt P10980)", "T1 construct": "isolated, left atria of rats (male 250-350 g); from tissue; host or cells: rat left atrium (isolated, male rats 250-350 g)", "T1 sequence (P10980 1-466)": "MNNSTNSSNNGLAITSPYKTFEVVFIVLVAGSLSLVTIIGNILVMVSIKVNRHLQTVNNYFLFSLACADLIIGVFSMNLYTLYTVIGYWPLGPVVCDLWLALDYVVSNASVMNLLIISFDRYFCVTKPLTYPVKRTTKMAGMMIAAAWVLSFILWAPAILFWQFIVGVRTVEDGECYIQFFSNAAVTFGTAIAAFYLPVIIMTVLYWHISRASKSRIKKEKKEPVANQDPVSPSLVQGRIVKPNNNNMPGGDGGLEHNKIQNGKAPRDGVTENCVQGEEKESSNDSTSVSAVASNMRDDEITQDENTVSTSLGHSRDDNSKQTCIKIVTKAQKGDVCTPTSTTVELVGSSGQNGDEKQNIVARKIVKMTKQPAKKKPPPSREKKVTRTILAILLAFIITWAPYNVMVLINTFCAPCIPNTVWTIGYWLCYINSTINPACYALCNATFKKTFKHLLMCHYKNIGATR", "assay": "Receptor affinity, electrically stimulated left atrium of the rat", "settings": "agonist carbachol, Schild slope normalised to 1.00, read-out: pA2 ± SEM, M2 receptor (cardiac) (converted)", "description": "The affinity of (±)-4,9-dihydro-3-methyl-4-[(4-methyl-1-piperazinyl)-acetyl]-10H-thieno[3,4-b][1,5]benzodiazepin-10-one (telenzepine, compound 2 in Table 7) and its conformers [(+)-enantiomer=compound 1, (-)-enantiomer=compound 3] to muscarinic M1 (ganglionic type) and M2 (cardiac type) receptors was investigated by the following methods:\nElectrically Stimulated Left Atrium of the Rat (Eltze et al., 1985, Europ. J. Pharmacol. 112, 211-224).\nIsometric contractions (HSE force transducer, K-30; Watanabe Linear Corder Mark 5) of isolated, left atria of rats (male 250-350 g) were recorded in an organ bath (10 ml, Tyrode nutrient solution, 31° C., gassing with carbogen, initial tension of the organs 0.25 g) under electrical stimulation (HSE stimulator; hook-shaped Pt electrodes at the base of the bath and immersed, annular Pt electrodes 1 cm below the water surface of the bath; 7 V, 3 ms, 2 Hz). After an equilibration time of 30 minutes, cumulative dose/response curves of carbachol (10^-8 -10^-6 M, in the presence of the antagonist also up to 10^-5 or 10^-4 M) were recorded simultaneously on 4 organs in each case by the technique described by van Rossum (1963). The substance to be tested was added to the organ baths 20 minutes before application of the carbachol. The pauses between the individual dose/response curves were 30-45 minutes.\nThe Tyrode nutrient solution used had the following composition (mM): NaCl 130, KCl 2.0, CaCl2 ·2H2 O 1.8, MgCl2 ·6H2 O 0.98, NaHCO3 12.0, NaH2 PO4 0.42 and glucose monohydrate 5.6. pA2 values (-log of the molar dissociation constants of the competitive antagonist-receptor complex) were determined by linear regression using the Schild plot: pA2 =-log [B/(x-1)], (Arunlakshana and Schild, 1959).\nTable 7 below gives pA2 values of the substances, for which the slope of the regression lines for theoretically competitive antagonism have been normalised to 1.00 (Tallarida et al., 1979)."}, "[1]": {"system": "modified Shay rat (lesion formation and acid secretion)", "assay": "Antiulcerogenic and secretion-inhibiting action on the modified Shay rat", "assay_type": "in vivo", "settings": "Rattus norvegicus, iv, 4 h, modified Shay rat, i.v., interpolated dose, 4 h, N=24", "description": "The excellent gastric protective action and the gastric secretion-inhibiting action of the compound (+)-4,9-dihydro-3-methyl-4-[(4-methyl-1-piperazinyl)-acetyl]-10H-thieno[3,4-b][1,5]benzodiazepin-10-one (=compound 1 in Table 8 below) in comparison with the corresponding (-)-enantiomer (=compound 3) and with the racemate (=compound 2) can be detected in studies on the modified Shay rat. The effect of the stated compounds after intravenous (i.v.) administration on the formation of lesions and the acid secretion in the modified Shay rat is shown in Table 8 below.\nUlcers are provoked in rats (female, 180-200 g, 4 animals per cage on high grids) which have fasted for 24 hours, by pylorus ligature (under diethyl ether anaesthesia) and oral administration of 100 mg/10 ml/kg of acetylsalicylic acid. The substances to be tested are administered intravenously (1 ml/kg) directly after the pylorus ligature. The wound is closed by means of Michel clamps. 4 hours afterwards, the animals are sacrificed under anaesthesia with ether by Atlas dislocation, and resection of the stomach.\nThe stomach is opened along the greater curvature and clamped to a cork sheet, the amount of secreted gastric juice (volume) is determined first and its HCl content (titration with sodium hydroxide solution) being determined subsequently. The number and size (=diameter) of ulcers present are determined using a stereomicroscope, under 10×magnification. The product of severity (according to the following point scale) and number of ulcers serves as an individual lesion index.\nThe reduction in the means lesion index of each treated group compared with the control group (=100%) serves as a measure of the antiulcerogenic effect. The ED50 is the dose which reduces the mean lesion index or the HCl secretion by 50% compared with the control."}, "[2]": {"system": "acetylcholine-induced asthma attacks", "assay": "Acetylcholine-induced asthma attacks in the conscious guinea pig, oral administration", "assay_type": "in vivo, guinea pig (Pirbright White)", "settings": "30 min after administration; for Number of animals, latency period tripled (= protected): 10 animals used", "description": "Effect of orally administered (±)-telenzepine on acetylcholine-induced asthma attacks in the conscious guinea pig\nAs described by R. Beume, U. Kilian, N. Kolassa, K. Mussler, Atemw.-Lungenkrkh., 11, 342-345, 1985 (\"The testing of bronchospasmolytic substances in conscious guinea pigs\").\nPirbright White, Interfauna (Tuttlingen), 250-450 g, male, 10 animals per dose and experiment.\nThoracographic measurement of the respiratory activity, measurement of the latency period from the beginning of acetylcholine nebulisation to the beginning of the asthma attack; determination of the number of animals for which, 30 minutes after administration, the latency period of the experimental attack has been at least tripled in relation to the control attack; estimation of the approximate ED50 from this.\n0.1, 0.3, 1, 3, 10 and 30 μmol/kg (±)-telenzepine p.o. (in 4% Methocel, administered in 0.9% NaCl); acetylcholine 0.09% in 0.9% NaCl by inhalatin (ultrasonic nebulisation).\nThe number of animals for which there is at least a tripling of the latency period of the acetylcholine-induced experimental attack in comparison with the control attack as a function of the perorally administered (±)-telenzepine dose is expressed as follows: […]"}, "M1 receptor (ganglionic)": {"target": "M1 receptor (ganglionic)", "assay": "Receptor affinity, electrically stimulated rabbit vas deferens in organ bath", "settings": "vas deferens of the rabbit, agonist McN-A-343, Schild slope normalised to 1.00", "procedure": "Isometric contractions (HSE force transducer, K-30; tilt and zones, BD-9 chart recorder) of isolated seminal duct sections of rabbits (male, white New Zealand rabbits, 2.5-3.5 kg) were recorded in an organ bath (10 ml, 31° C., gassing with carbogen, initial tension of the organs 0.75 g) under electrical stimultion (HSE stimulator; hook-shaped Pt electrode 1 cm below the water surface of the bath; 30 V, 0.5 ms, 0.05 Hz). After an equilibration time of 30 minutes, cumulative dose/response curves of McN-A-343 (10^-7 -2×10^-6 M) were recorded simultaneously on 8 organ sections in each case (control curves), using the technique described by van Rossum (1963). After 3 control curves, a fixed concentration of the agonist (for example 5×10^-7, 10^-6, 3×10^-6, 10^-5 or 3×10^-5 M) per organ section was applied and, after stabilisation of the effect, increasing concentrations of the agonist to be tested were added. The nutrient solution used had the following composition (mM): NaCl 118, KCl 4.7, CaCl2 ·2H2 O 2.5, MgSO4 ·7H2 O 0.6, KH2 PO 4 1.2, NaHCO3 25.0 and glucose 11.1. In order to block α2 -adrenoreceptors, the nutrient solution additionally contained 10^-6 M yohimbine."}}, "note": "Like-named read-outs stand apart in the source and are kept apart here.", "data": [{"smiles": "Cc1scc2c1N(C(=O)CN1CCN(C)CC1)c1ccccc1NC2=O", "note": "(racemic) [(±)-telenzepine, 4,9-dihydro-3-methyl-4-[(4-methyl-1-piperazinyl)-acetyl]-10H-thieno[3,4-b][1,5]benzodiazepin-10-one]", "values": [{"measurement": "Kb", "setting": "M2 receptor (cardiac)", "result": 47.9, "unit": "nM"}, {"measurement": "ED50", "setting": "[1]; read-out: Gastric protective action, reduction of lesion index, about ED50", "result": "~0.042", "unit": "mg/kg"}, {"measurement": "ED50", "setting": "[1]; read-out: Inhibition of acid secretion, reduction of HCl secretion, about ED50", "result": "~0.18", "unit": "mg/kg"}, {"measurement": "Number of animals, latency period tripled (= protected)", "setting": "[2]; 0.1 μmol/kg p.o.", "result": "3 number of animals"}, {"measurement": "Number of animals, latency period tripled (= protected)", "setting": "[2]; 0.3 μmol/kg p.o.", "result": "5 number of animals"}, {"measurement": "Number of animals, latency period tripled (= protected)", "setting": "[2]; 1 μmol/kg p.o.", "result": "6 number of animals"}, {"measurement": "Number of animals, latency period tripled (= protected)", "setting": "[2]; 3 μmol/kg p.o.", "result": "7 number of animals"}, {"measurement": "Number of animals, latency period tripled (= protected)", "setting": "[2]; 10 μmol/kg p.o.", "result": "9 number of animals"}, {"measurement": "Number of animals, latency period tripled (= protected)", "setting": "[2]; 30 μmol/kg p.o.", "result": "10 number of animals"}, {"measurement": "ED50", "setting": "[2]; Cavia porcellus, po, 0.5 h, 95% Int. in brackets, read-out: approximate ED50 (at least tripling of latency period)", "result": "~0.7", "unit": "µmol/kg"}, {"measurement": "pA2 ± SEM, M1 receptor (ganglionic)", "setting": "M1 receptor (ganglionic)", "result": "8.86 ± 0.06"}]}]}
